From PubChem BioAssay (NCI)
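Briefly, cells in 96-well plates were exposed to five compound concentrations for 48 h, and endpoints were estimated by linear interpolation. GI50 marks 50% less growth. TGI is the concentration that stops growth completely.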

Tests used:
Experiment in all cases: NCI-60 cell line screen, 48 h
[1] = tested on: K-562 leukemia
[2] = tested on: SK-MEL-2 melanoma
[3] = tested on: RPMI-8226 leukemia
[4] = tested on: SK-MEL-28 melanoma
[5] = tested on: SK-MEL-5 melanoma
[6] = tested on: PC-3 prostate
[7] = tested on: M14 melanoma
[8] = tested on: CAKI-1 renal
[9] = tested on: NCI-H522 lung
[10] = tested on: SW-620 colon
[11] = tested on: SF-268 CNS
[12] = tested on: EKVX NSCLC
[13] = tested on: NCI-H226 lung
[14] = tested on: NCI/ADR-RES ovarian
[15] = tested on: UO-31 renal
[16] = tested on: HCC-2998 colon
[17] = tested on: ACHN renal
[18] = tested on: U251 CNS
[19] = tested on: HCT-15 colon
[20] = tested on: TK-10 renal
[21] = tested on: SF-539 CNS
[22] = tested on: MDA-MB-435
[23] = tested on: IGROV1 ovarian
[24] = tested on: HOP-92 NSCLC
[25] = tested on: CCRF-CEM leukemia
[26] = tested on: SK-OV-3 ovarian
[27] = tested on: COLO 205 colon
[28] = tested on: HT29 colon
[29] = tested on: BT-549 breast
[30] = tested on: A498 renal
[31] = tested on: OVCAR-8 ovarian
[32] = tested on: A549 NSCLC
[33] = tested on: NCI-H460 lung
[34] = tested on: OVCAR-3 ovarian
[35] = tested on: OVCAR-4 ovarian
[36] = tested on: NCI-H23 lung
[37] = tested on: MCF7 breast
[38] = tested on: HCT-116 colon
[39] = tested on: UACC-257 melanoma
[40] = tested on: MDA-MB-231 breast
[41] = tested on: LOX IMVI melanoma
[42] = tested on: SNB-75 CNS
[43] = tested on: MOLT-4 leukemia
[44] = tested on: SN12C renal
[45] = tested on: SF-295 CNS
[46] = tested on: RXF 393 renal
[47] = tested on: T-47D breast
[48] = tested on: UACC-62 melanoma
[49] = tested on: SR leukemia
[50] = tested on: KM12 colon
[51] = tested on: OVCAR-5 ovarian
[52] = tested on: HOP-62 NSCLC
[53] = tested on: 786-0 renal
[54] = tested on: SNB-19 CNS
[55] = tested on: DU-145 prostate
[56] = tested on: HS 578T breast
[57] = tested on: MALME-3M melanoma
[58] = tested on: HL-60(TB) leukemia

Structure (SMILES): N#Cc1c(N/N=C/c2c(Cl)cccc2Cl)nc(N)nc1N1CCOCC1
- GI50 [1]: 2.34 µM
- TGI [1]: 11.3 µM
- GI50 [2]: 8.3 µM
- TGI [2]: 81.8 µM
- GI50 [3]: 3.86 µM
- TGI [3]: 26.2 µM
- GI50 [4]: 82.1 µM
- TGI [4]: > 100 µM
- GI50 [5]: 3.71 µM
- TGI [5]: 24 µM
- GI50 [6]: 3.91 µM
- TGI [6]: 95.8 µM
- GI50 [7]: 6.79 µM
- TGI [7]: 38.7 µM
- GI50 [8]: 12.1 µM
- TGI [8]: > 100 µM
- GI50 [9]: 4.35 µM
- TGI [9]: 27.3 µM
- GI50 [10]: 6.11 µM
- TGI [10]: > 100 µM
- GI50 [11]: 16.5 µM
- TGI [11]: > 100 µM
- GI50 [12]: 54.1 µM
- TGI [12]: > 100 µM
- GI50 [13]: 24.5 µM
- TGI [13]: > 100 µM
- GI50 [14]: 9.98 µM
- TGI [14]: 64.6 µM
- GI50 [15]: 14.5 µM
- TGI [15]: 86.4 µM
- GI50 [16]: 3.96 µM
- TGI [16]: 12.8 µM
- GI50 [17]: 5.48 µM
- TGI [17]: > 100 µM
- GI50 [18]: 15.6 µM
- TGI [18]: > 100 µM
- GI50 [19]: 4.52 µM
- TGI [19]: 57.4 µM
- GI50 [20]: 20.8 µM
- TGI [20]: 92 µM
- GI50 [21]: 7.24 µM
- TGI [21]: 30.4 µM
- GI50 [22]: 3.26 µM
- TGI [22]: 36 µM
- GI50 [23]: 3.95 µM
- TGI [23]: 34.6 µM
- GI50 [24]: 12.4 µM
- TGI [24]: > 100 µM
- GI50 [25]: 6.27 µM
- TGI [25]: > 100 µM
- GI50 [26]: 20.2 µM
- TGI [26]: > 100 µM
- GI50 [27]: 14.9 µM
- TGI [27]: > 100 µM
- GI50 [28]: 19.4 µM
- TGI [28]: > 100 µM
- GI50 [29]: 18 µM
- TGI [29]: > 100 µM
- GI50 [30]: 2.67 µM
- TGI [30]: 15.5 µM
- GI50 [31]: 60.6 µM
- TGI [31]: > 100 µM
- GI50 [32]: 19.1 µM
- TGI [32]: > 100 µM
- GI50 [33]: 5.32 µM
- TGI [33]: > 100 µM
- GI50 [34]: 3.6 µM
- TGI [34]: > 100 µM
- GI50 [35]: > 100 µM
- TGI [35]: > 100 µM
- GI50 [36]: 44.5 µM
- TGI [36]: > 100 µM
- GI50 [37]: 3.18 µM
- TGI [37]: > 100 µM
- GI50 [38]: 4.72 µM
- TGI [38]: 31.3 µM
- GI50 [39]: 6.77 µM
- TGI [39]: > 100 µM
- GI50 [40]: 11.7 µM
- TGI [40]: 56.1 µM
- GI50 [41]: 8.97 µM
- TGI [41]: > 100 µM
- GI50 [42]: 35.5 µM
- TGI [42]: > 100 µM
- GI50 [43]: 4.08 µM
- TGI [43]: 40.6 µM
- GI50 [44]: 16.8 µM
- TGI [44]: 85.7 µM
- GI50 [45]: 4.69 µM
- TGI [45]: > 100 µM
- GI50 [46]: 16.6 µM
- TGI [46]: 94.2 µM
- GI50 [47]: 48 µM
- TGI [47]: > 100 µM
- GI50 [48]: 3.7 µM
- TGI [48]: 31.4 µM
- GI50 [49]: 1.1 µM
- TGI [49]: 3.18 µM
- GI50 [50]: 4.06 µM
- TGI [50]: 71.7 µM
- GI50 [51]: 43.4 µM
- TGI [51]: > 100 µM
- GI50 [52]: 13.9 µM
- TGI [52]: > 100 µM
- GI50 [53]: 5.82 µM
- TGI [53]: > 100 µM
- GI50 [54]: 34.5 µM
- TGI [54]: > 100 µM
- GI50 [55]: 16 µM
- TGI [55]: > 100 µM
- GI50 [56]: 13.3 µM
- TGI [56]: 82.1 µM

Structure (SMILES): c1ccc2c(c1)c(NCCCCN1CCCCC1)cc1c3ccccc3c(NCCCCN3CCCCC3)cc21
- GI50 [1]: 7.85 µM
- TGI [1]: > 100 µM
- GI50 [2]: 69.3 µM
- TGI [2]: > 100 µM
- GI50 [3]: 3.85 µM
- TGI [3]: 74.5 µM
- GI50 [5]: 15.1 µM
- TGI [5]: 31.4 µM
- GI50 [6]: 13.4 µM
- TGI [6]: 78.5 µM
- GI50 [8]: 21 µM
- TGI [8]: 46.1 µM
- GI50 [9]: 66.2 µM
- TGI [9]: > 100 µM
- GI50 [10]: 10.6 µM
- TGI [10]: > 100 µM
- GI50 [11]: 14.1 µM
- TGI [11]: 32.1 µM
- GI50 [12]: 19.9 µM
- TGI [12]: 42 µM
- GI50 [13]: 20.9 µM
- TGI [13]: 54.9 µM
- GI50 [14]: 16.6 µM
- TGI [14]: 38.4 µM
- GI50 [15]: 28.7 µM
- TGI [15]: > 100 µM
- GI50 [16]: 18.2 µM
- TGI [16]: 41.6 µM
- GI50 [17]: 15.5 µM
- TGI [17]: 30.5 µM
- GI50 [18]: 7.67 µM
- TGI [18]: 29.8 µM
- GI50 [19]: 22.8 µM
- TGI [19]: 47.5 µM
- GI50 [20]: 22.1 µM
- TGI [20]: 48.9 µM
- GI50 [21]: 16.5 µM
- TGI [21]: 37.5 µM
- GI50 [22]: 3.42 µM
- TGI [22]: 12.3 µM
- GI50 [23]: 36.9 µM
- TGI [23]: > 100 µM
- GI50 [24]: 20.4 µM
- TGI [24]: 52.7 µM
- GI50 [25]: 13.4 µM
- TGI [25]: > 100 µM
- GI50 [26]: 18.3 µM
- TGI [26]: 48.1 µM
- GI50 [27]: 21.9 µM
- TGI [27]: 47.7 µM
- GI50 [29]: 20.7 µM
- TGI [29]: 45.2 µM
- GI50 [30]: 13.6 µM
- TGI [30]: 32.9 µM
- GI50 [31]: 21.2 µM
- TGI [31]: 47.2 µM
- GI50 [32]: 21.8 µM
- TGI [32]: 56.6 µM
- GI50 [33]: 18.3 µM
- TGI [33]: 53.7 µM
- GI50 [34]: 19.5 µM
- TGI [34]: 87.2 µM
- GI50 [36]: 20.5 µM
- TGI [36]: 44.5 µM
- GI50 [37]: 4.76 µM
- TGI [37]: 23.2 µM
- GI50 [38]: 5.22 µM
- TGI [38]: 32.7 µM
- GI50 [39]: 2.67 µM
- TGI [39]: 6.36 µM
- GI50 [40]: 17.2 µM
- TGI [40]: 35.7 µM
- GI50 [41]: 11.2 µM
- TGI [41]: 28.2 µM
- GI50 [43]: 6.96 µM
- TGI [43]: > 100 µM
- GI50 [44]: 17.2 µM
- TGI [44]: 35.4 µM
- GI50 [45]: 22.8 µM
- TGI [45]: 65.4 µM
- GI50 [46]: 15.7 µM
- TGI [46]: 38.2 µM
- GI50 [48]: 19.5 µM
- TGI [48]: 35.4 µM
- GI50 [57]: 12.9 µM
- TGI [57]: 38.7 µM
- GI50 [50]: 2.97 µM
- TGI [50]: 8.98 µM
- GI50 [51]: 24.3 µM
- TGI [51]: 48.9 µM
- GI50 [52]: 10.9 µM
- TGI [52]: 26 µM
- GI50 [53]: 12 µM
- TGI [53]: 29.1 µM
- GI50 [58]: 19.7 µM
- TGI [58]: > 100 µM
- GI50 [54]: 22.5 µM
- TGI [54]: 50.9 µM
- GI50 [55]: 16.3 µM
- TGI [55]: 46.2 µM
- GI50 [56]: 27.5 µM
- TGI [56]: 68.6 µM
